PubChem BioAssay (NCI)
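Five compound concentrations were applied to cells in 96-well plates for 48 hours; endpoints were derived by simple linear interpolation of the resulting dose-response curve. GI50 is the concentration that inhibits growth by half. TGI is the concentration that stops growth completely.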

Key:
Test in all cases: growth of human tumour cells (NCI), 48 h
786-0 renal = test system: 786-0 renal
A498 renal = test system: A498 renal
A549 NSCLC = test system: A549 NSCLC
ACHN renal = test system: ACHN renal
BT-549 breast = test system: BT-549 breast
CAKI-1 renal = test system: CAKI-1 renal
CCRF-CEM leukemia = test system: CCRF-CEM leukemia
COLO 205 colon = test system: COLO 205 colon
DU-145 prostate = test system: DU-145 prostate
EKVX NSCLC = test system: EKVX NSCLC
HCT-116 colon = test system: HCT-116 colon
HCT-15 colon = test system: HCT-15 colon
HL-60(TB) leukemia = test system: HL-60(TB) leukemia
HOP-62 NSCLC = test system: HOP-62 NSCLC
HS 578T breast = test system: HS 578T breast
IGROV1 ovarian = test system: IGROV1 ovarian
KM12 colon = test system: KM12 colon
LOX IMVI melanoma = test system: LOX IMVI melanoma
M14 melanoma = test system: M14 melanoma
MALME-3M melanoma = test system: MALME-3M melanoma
MDA-MB-231 breast = test system: MDA-MB-231 breast
MDA-MB-435 = test system: MDA-MB-435
MOLT-4 leukemia = test system: MOLT-4 leukemia
NCI-H226 lung = test system: NCI-H226 lung
NCI-H23 lung = test system: NCI-H23 lung
NCI-H522 lung = test system: NCI-H522 lung
NCI/ADR-RES ovarian = test system: NCI/ADR-RES ovarian
OVCAR-4 ovarian = test system: OVCAR-4 ovarian
OVCAR-5 ovarian = test system: OVCAR-5 ovarian
OVCAR-8 ovarian = test system: OVCAR-8 ovarian
PC-3 prostate = test system: PC-3 prostate
RXF 393 renal = test system: RXF 393 renal
SF-268 CNS = test system: SF-268 CNS
SF-295 CNS = test system: SF-295 CNS
SF-539 CNS = test system: SF-539 CNS
SK-MEL-2 melanoma = test system: SK-MEL-2 melanoma
SK-MEL-28 melanoma = test system: SK-MEL-28 melanoma
SK-MEL-5 melanoma = test system: SK-MEL-5 melanoma
SK-OV-3 ovarian = test system: SK-OV-3 ovarian
SN12C renal = test system: SN12C renal
SNB-19 CNS = test system: SNB-19 CNS
SNB-75 CNS = test system: SNB-75 CNS
SW-620 colon = test system: SW-620 colon
T-47D breast = test system: T-47D breast
TK-10 renal = test system: TK-10 renal
U251 CNS = test system: U251 CNS
UACC-257 melanoma = test system: UACC-257 melanoma
UACC-62 melanoma = test system: UACC-62 melanoma
UO-31 renal = test system: UO-31 renal
HCC-2998 colon = test system: HCC-2998 colon
HOP-92 NSCLC = test system: HOP-92 NSCLC
HT29 colon = test system: HT29 colon
K-562 leukemia = test system: K-562 leukemia
MCF7 breast = test system: MCF7 breast
NCI-H460 lung = test system: NCI-H460 lung
OVCAR-3 ovarian = test system: OVCAR-3 ovarian
RPMI-8226 leukemia = test system: RPMI-8226 leukemia
SR leukemia = test system: SR leukemia

With `C=CCCC(=O)N1CCC(C(=O)OCC)C1=O` (stereo not drawn) the TGI (786-0 renal) was greater than 100 µM, the TGI (A498 renal) was greater than 100 µM and the TGI (A549 NSCLC) was greater than 100 µM. The TGI (ACHN renal) was greater than 100 µM, the TGI (BT-549 breast) was greater than 100 µM and the TGI (CAKI-1 renal) was greater than 100 µM. It also gave a TGI (CCRF-CEM leukemia) greater than 100 µM, a TGI (COLO 205 colon) greater than 100 µM and a TGI (DU-145 prostate) greater than 100 µM. It also gave a TGI (EKVX NSCLC) greater than 100 µM, a TGI (HCT-116 colon) greater than 100 µM and a TGI (HCT-15 colon) greater than 100 µM. For the same compound, the TGI (HL-60(TB) leukemia) was greater than 100 µM, the TGI (HOP-62 NSCLC) was greater than 100 µM and the TGI (HS 578T breast) was greater than 100 µM. For the same compound, the TGI (IGROV1 ovarian) was greater than 100 µM, the TGI (KM12 colon) was greater than 100 µM and the TGI (LOX IMVI melanoma) was greater than 100 µM. For the same compound, the TGI (M14 melanoma) was greater than 100 µM, the TGI (MALME-3M melanoma) was greater than 100 µM and the TGI (MDA-MB-231 breast) was greater than 100 µM. The TGI (MDA-MB-435) was greater than 100 µM, the TGI (MOLT-4 leukemia) was greater than 100 µM and the TGI (NCI-H226 lung) was greater than 100 µM. It also gave a TGI (NCI-H23 lung) greater than 100 µM, a TGI (NCI-H522 lung) greater than 100 µM and a TGI (NCI/ADR-RES ovarian) greater than 100 µM. It also gave a TGI (OVCAR-4 ovarian) greater than 100 µM, a TGI (OVCAR-5 ovarian) greater than 100 µM and a TGI (OVCAR-8 ovarian) greater than 100 µM. For the same compound, the TGI (PC-3 prostate) was greater than 100 µM, the TGI (RXF 393 renal) was greater than 100 µM and the TGI (SF-268 CNS) was greater than 100 µM. It also gave a TGI (SF-295 CNS) greater than 100 µM, a TGI (SF-539 CNS) greater than 100 µM and a TGI (SK-MEL-2 melanoma) greater than 100 µM. For the same compound, the TGI (SK-MEL-28 melanoma) was greater than 100 µM, the TGI (SK-MEL-5 melanoma) was greater than 100 µM and the TGI (SK-OV-3 ovarian) was greater than 100 µM. For the same compound, the TGI (SN12C renal) was greater than 100 µM, the TGI (SNB-19 CNS) was greater than 100 µM and the TGI (SNB-75 CNS) was greater than 100 µM. For the same compound, the TGI (SW-620 colon) was greater than 100 µM, the TGI (T-47D breast) was greater than 100 µM and the TGI (TK-10 renal) was greater than 100 µM. The TGI (U251 CNS) was greater than 100 µM, the TGI (UACC-257 melanoma) was greater than 100 µM and the TGI (UACC-62 melanoma) was greater than 100 µM. The TGI (UO-31 renal) was greater than 100 µM.
In the case of `CCC(/C=C(C)/C=C/C(=O)c1c(O)c(-c2ccc(O)cc2)c[nH]c1=O)CO` (stereo not drawn), the GI50 (786-0 renal) is reported as 8.1 µM, the TGI (786-0 renal) is reported as 20.6 µM and the GI50 (A498 renal) is reported as 3.69 µM. The TGI (A498 renal) was 18.8 µM, the GI50 (A549 NSCLC) was 20.7 µM and the TGI (A549 NSCLC) was 93.8 µM. It also gave a GI50 (ACHN renal) of 11.9 µM, a TGI (ACHN renal) of 37.9 µM and a GI50 (CAKI-1 renal) of 10.5 µM. The TGI (CAKI-1 renal) was 47.5 µM, the GI50 (CCRF-CEM leukemia) was 3.53 µM and the TGI (CCRF-CEM leukemia) was 26.7 µM. The GI50 (COLO 205 colon) was 15.5 µM, the TGI (COLO 205 colon) was 28.8 µM and the GI50 (DU-145 prostate) was 2.83 µM. For the same compound, the TGI (DU-145 prostate) was 12.5 µM, the GI50 (EKVX NSCLC) was 15.4 µM and the TGI (EKVX NSCLC) was 68 µM. The GI50 (HCC-2998 colon) was 13 µM, the TGI (HCC-2998 colon) was 25.6 µM and the GI50 (HCT-116 colon) was 6.61 µM. It also gave a TGI (HCT-116 colon) of 19.2 µM, a GI50 (HCT-15 colon) of 8.13 µM and a TGI (HCT-15 colon) of 22.1 µM. For the same compound, the GI50 (HL-60(TB) leukemia) was 2.83 µM, the TGI (HL-60(TB) leukemia) was 17.4 µM and the GI50 (HOP-62 NSCLC) was 14.2 µM. For the same compound, the TGI (HOP-62 NSCLC) was 37.2 µM, the GI50 (HOP-92 NSCLC) was 8.55 µM and the TGI (HOP-92 NSCLC) was 82.6 µM. The GI50 (HS 578T breast) was 2.78 µM, the TGI (HS 578T breast) was 36.1 µM and the GI50 (HT29 colon) was 13.9 µM. It also gave a TGI (HT29 colon) of 29.2 µM, a GI50 (IGROV1 ovarian) of 6.11 µM and a TGI (IGROV1 ovarian) of 42.1 µM. It also gave a GI50 (K-562 leukemia) of 4.11 µM, a TGI (K-562 leukemia) of 37.4 µM and a GI50 (KM12 colon) of 4.2 µM. For the same compound, the TGI (KM12 colon) was 16.1 µM, the GI50 (LOX IMVI melanoma) was 9.87 µM and the TGI (LOX IMVI melanoma) was 21.5 µM. For the same compound, the GI50 (M14 melanoma) was 12.9 µM, the TGI (M14 melanoma) was 26.7 µM and the GI50 (MALME-3M melanoma) was 10.3 µM. It also gave a TGI (MALME-3M melanoma) of 26.4 µM, a GI50 (MCF7 breast) of 4.35 µM and a TGI (MCF7 breast) of 18.9 µM. For the same compound, the GI50 (MDA-MB-231 breast) was 9.17 µM, the TGI (MDA-MB-231 breast) was 29.5 µM and the GI50 (MDA-MB-435) was 4.34 µM. It also gave a TGI (MDA-MB-435) of 31.9 µM, a GI50 (MOLT-4 leukemia) of 5.84 µM and a TGI (MOLT-4 leukemia) of 44.2 µM. The GI50 (NCI-H226 lung) was 18 µM, the TGI (NCI-H226 lung) was greater than 100 µM and the GI50 (NCI-H23 lung) was 9.55 µM. The TGI (NCI-H23 lung) was 24.1 µM, the GI50 (NCI-H460 lung) was 6.15 µM and the TGI (NCI-H460 lung) was 21.9 µM. For the same compound, the GI50 (NCI-H522 lung) was 5.56 µM, the TGI (NCI-H522 lung) was 21 µM and the GI50 (NCI/ADR-RES ovarian) was 21.6 µM. The TGI (NCI/ADR-RES ovarian) was greater than 100 µM, the GI50 (OVCAR-3 ovarian) was 3.8 µM and the TGI (OVCAR-3 ovarian) was 16.1 µM. The GI50 (OVCAR-4 ovarian) was 12 µM, the TGI (OVCAR-4 ovarian) was greater than 100 µM and the GI50 (OVCAR-5 ovarian) was 13 µM. It also gave a TGI (OVCAR-5 ovarian) of 27.1 µM, a GI50 (OVCAR-8 ovarian) of 8.34 µM and a TGI (OVCAR-8 ovarian) greater than 100 µM. It also gave a GI50 (PC-3 prostate) of 14.3 µM, a TGI (PC-3 prostate) of 82.1 µM and a GI50 (RPMI-8226 leukemia) of 6.89 µM. It also gave a TGI (RPMI-8226 leukemia) of 32.3 µM, a GI50 (RXF 393 renal) of 5.82 µM and a TGI (RXF 393 renal) of 22.2 µM. The GI50 (SF-268 CNS) was 6.8 µM, the TGI (SF-268 CNS) was 21.1 µM and the GI50 (SF-295 CNS) was 10.1 µM. The TGI (SF-295 CNS) was 30.9 µM, the GI50 (SF-539 CNS) was 3.22 µM and the TGI (SF-539 CNS) was 26 µM. It also gave a GI50 (SK-MEL-2 melanoma) of 16 µM, a TGI (SK-MEL-2 melanoma) of 52.2 µM and a GI50 (SK-MEL-28 melanoma) of 11.8 µM. For the same compound, the TGI (SK-MEL-28 melanoma) was 24.6 µM, the GI50 (SK-MEL-5 melanoma) was 11.2 µM and the TGI (SK-MEL-5 melanoma) was 24.3 µM. It also gave a GI50 (SK-OV-3 ovarian) of 23.4 µM, a TGI (SK-OV-3 ovarian) of 99.5 µM and a GI50 (SN12C renal) of 11.8 µM. For the same compound, the TGI (SN12C renal) was 41.9 µM, the GI50 (SNB-19 CNS) was 11.9 µM and the TGI (SNB-19 CNS) was 27.4 µM. The GI50 (SNB-75 CNS) was 6.11 µM, the TGI (SNB-75 CNS) was 24.5 µM and the GI50 (SR leukemia) was 2.43 µM. The TGI (SR leukemia) was 13.2 µM, the GI50 (SW-620 colon) was 10.7 µM and the TGI (SW-620 colon) was 26.9 µM. For the same compound, the GI50 (T-47D breast) was 10.6 µM, the TGI (T-47D breast) was 54.2 µM and the GI50 (TK-10 renal) was 20.4 µM. For the same compound, the TGI (TK-10 renal) was 80.8 µM, the GI50 (U251 CNS) was 6.91 µM and the TGI (U251 CNS) was 23.9 µM. It also gave a GI50 (UACC-257 melanoma) of 11.3 µM, a TGI (UACC-257 melanoma) of 25 µM and a GI50 (UACC-62 melanoma) of 10.2 µM. For the same compound, the TGI (UACC-62 melanoma) was 23.3 µM, the GI50 (UO-31 renal) was 6.74 µM and the TGI (UO-31 renal) was 28.7 µM.
